These results are taken from ChEMBL document CHEMBL1144023, “Computer-aided discovery of anti-inflammatory thiazolidinones with dual cyclooxygenase/lipoxygenase inhibition” (J Med Chem, 2008).

pIC50: −log10 of the molar value. Activity calls are given as the source filed them. No cut-off for these calls is given here.

Assay [1] concerns the target T1, Prostaglandin G/H synthase 2 (Homo sapiens) (UniProt P35354).
T1 sequence (whole entry): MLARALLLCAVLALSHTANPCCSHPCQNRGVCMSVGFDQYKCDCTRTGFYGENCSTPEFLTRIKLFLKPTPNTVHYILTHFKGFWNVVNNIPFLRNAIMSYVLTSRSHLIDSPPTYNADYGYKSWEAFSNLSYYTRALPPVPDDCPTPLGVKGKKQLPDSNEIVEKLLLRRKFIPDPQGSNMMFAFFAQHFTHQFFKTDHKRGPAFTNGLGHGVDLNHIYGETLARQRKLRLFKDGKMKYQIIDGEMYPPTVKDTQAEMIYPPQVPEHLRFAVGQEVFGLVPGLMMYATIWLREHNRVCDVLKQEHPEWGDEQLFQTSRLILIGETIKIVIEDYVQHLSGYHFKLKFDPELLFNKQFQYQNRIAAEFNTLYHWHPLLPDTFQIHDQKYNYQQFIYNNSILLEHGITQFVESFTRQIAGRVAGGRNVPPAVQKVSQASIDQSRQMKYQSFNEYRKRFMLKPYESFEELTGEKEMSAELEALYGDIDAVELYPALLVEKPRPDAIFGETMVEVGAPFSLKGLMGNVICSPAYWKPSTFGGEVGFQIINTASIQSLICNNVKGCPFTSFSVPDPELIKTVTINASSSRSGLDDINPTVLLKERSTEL
Put plainly: Inhibition of human recombinant COX2 at 200 uM.

Assay [2] concerns the target T2, Prostaglandin G/H synthase 1 (Ovis aries) (UniProt P05979).
T2 sequence (whole entry): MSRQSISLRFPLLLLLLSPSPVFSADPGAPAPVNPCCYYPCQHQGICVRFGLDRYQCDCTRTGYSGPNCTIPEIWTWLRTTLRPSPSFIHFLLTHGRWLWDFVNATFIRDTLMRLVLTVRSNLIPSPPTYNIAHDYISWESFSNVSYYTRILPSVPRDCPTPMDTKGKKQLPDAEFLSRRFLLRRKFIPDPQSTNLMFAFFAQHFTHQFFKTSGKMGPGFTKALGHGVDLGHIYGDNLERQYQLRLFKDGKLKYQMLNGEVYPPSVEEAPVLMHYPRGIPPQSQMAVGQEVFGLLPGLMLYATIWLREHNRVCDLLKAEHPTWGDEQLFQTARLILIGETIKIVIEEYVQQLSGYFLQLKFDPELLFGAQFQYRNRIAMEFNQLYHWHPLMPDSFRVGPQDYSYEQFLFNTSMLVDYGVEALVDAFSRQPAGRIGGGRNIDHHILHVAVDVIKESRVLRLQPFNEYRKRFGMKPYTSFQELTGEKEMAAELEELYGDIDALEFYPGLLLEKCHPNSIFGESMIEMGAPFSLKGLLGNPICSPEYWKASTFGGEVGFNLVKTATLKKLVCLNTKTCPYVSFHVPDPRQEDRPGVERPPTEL
Put plainly: Inhibition of sheep COX1 at 200 uM in presence of 1 uM arachidonic acid.

In assay [3] the target is T2, Prostaglandin G/H synthase 1 (Ovis aries). Kind of assay: Inhibition of sheep COX1 at 200 uM in presence of 100 uM arachidonic acid.
Assay [4] addresses T3, Seed linoleate 13S-lipoxygenase-1 (Glycine max) (UniProt P08170).
T3 sequence (whole entry): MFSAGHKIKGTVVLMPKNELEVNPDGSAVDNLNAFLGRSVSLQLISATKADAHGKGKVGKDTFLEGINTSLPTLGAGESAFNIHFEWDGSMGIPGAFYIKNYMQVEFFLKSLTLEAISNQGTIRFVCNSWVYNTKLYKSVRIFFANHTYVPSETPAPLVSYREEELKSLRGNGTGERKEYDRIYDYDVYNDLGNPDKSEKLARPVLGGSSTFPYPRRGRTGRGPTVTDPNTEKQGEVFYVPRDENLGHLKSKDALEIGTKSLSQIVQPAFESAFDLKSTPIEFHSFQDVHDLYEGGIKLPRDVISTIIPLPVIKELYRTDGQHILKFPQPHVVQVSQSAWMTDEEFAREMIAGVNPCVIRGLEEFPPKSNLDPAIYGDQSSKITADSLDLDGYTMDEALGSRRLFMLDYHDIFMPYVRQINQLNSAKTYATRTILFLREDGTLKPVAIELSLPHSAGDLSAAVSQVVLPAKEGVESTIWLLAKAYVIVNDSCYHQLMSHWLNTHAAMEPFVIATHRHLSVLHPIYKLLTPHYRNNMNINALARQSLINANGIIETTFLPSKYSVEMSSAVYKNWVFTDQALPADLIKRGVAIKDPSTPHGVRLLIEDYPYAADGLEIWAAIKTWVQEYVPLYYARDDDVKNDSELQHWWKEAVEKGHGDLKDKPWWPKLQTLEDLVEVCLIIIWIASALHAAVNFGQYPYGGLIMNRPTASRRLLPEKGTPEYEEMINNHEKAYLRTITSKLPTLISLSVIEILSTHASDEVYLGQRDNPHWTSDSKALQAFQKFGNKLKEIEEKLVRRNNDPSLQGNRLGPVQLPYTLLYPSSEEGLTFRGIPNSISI
Put plainly: Inhibition of soybean LOX at 100 uM.

The subject of another assay is Mus musculus. Put plainly: Antiinflammatory activity in AKR mouse assessed as inhibition of carrageenan-induced paw edema at 0.01 mmol/kg. The format is functional. On the technique in general: Carrageenan injected into the paw causes an acute inflammation.
Assay [5] concerns the target T4, Prostaglandin G/H synthase 2 (Homo sapiens, UniProt P35354).
T4 sequence (P35354 whole entry): T1 sequence (whole entry)
Kind of assay: Inhibition of human recombinant COX2.

A word on the inhibition: it is the share of the control response that was lost under treatment. Turning to `O=C1CSC(Nc2nccs2)=N1`, the inhibition in assay [1] and in assay [2] was 0% each time.

What is called inhibition in vivo is the relative decrease from the control value, in per cent. Take `O=C1N/C(=N\c2nccs2)S/C1=C/c1ccc([N+](=O)[O-])cc1`: the outcome in assay [3] was inactive. Moreover, the inhibition in assay [1] is 4.5%; in assay [4], 12.5%; in assay [2], 60%. Moreover, in the assay with Mus musculus, the inhibition in vivo at 10 µmol/kg was 66.1%.

Take `COc1ccc(/C=C2/S/C(=N/c3nccs3)NC2=O)cc1`: the outcome in assay [3] was inactive. Further, the inhibition is 2.5% in assay [1], 22.4% in assay [4] and 8% in assay [2]. Moreover, the inhibition in vivo at 10 µmol/kg with Mus musculus came to 51.1%.

In general, pIC50 refers to the negative decadic logarithm of the IC50, by convention in mol/L. In the case of `O=C1N/C(=N\c2nccs2)S/C1=C/c1cccc(Cl)c1`, the result in assay [3] was inactive. Further, in assay [5], the pIC50 was 3.58. The inhibition in assay [1] came out at 30.4%; in assay [4] it was 12%; in assay [2], 90%. Further, the inhibition in vivo at 10 µmol/kg with Mus musculus amounted to 44.5%.
